What was measured:
Akt protein [1] = assay: Western blotting of Akt protein phosphorylation in insulin-treated HepG2 cells; format: cell-based, human
Experimental: First, male C57BL/6 mice at 8 weeks were divided into the fasted group wherein the mice were fasted for 16 hours and the refed group wherein the mice were fasted for 16 hours and then fed for 4 hours. Each group was sub-divided into the high fat diet group (HFD) and the normal diet group (chow). The liver cells were extracted from the raised mice by the same manner and under the same conditions as described in Example 1. The extracted liver cells were lysed in a lysis buffer containing phosphatase (Sigma-Aldrich, USA) and protease inhibitor (Sigma-Aldrich, USA). Proteins extracted from 2 to 3 mg of the liver tissue were homogenized by using a tissue homogenizer (TissuLyser, Qiagen, USA) for 1.5 minutes at a frequency of 1/30 sec. The homogenized lysate was centrifuged at 12,000 rpm for 15 minutes and the supernatant was obtained. The amount of the extracted protein was quantified by using a protein assay kit (Bio-Rad Laboratories, USA), and at this time BSA was used as a standard sample. 3 mg of the protein was mixed with 6× loading buffer, followed by electrophoresis using 10% SDS-PAGE gel. The electrophoresed protein was transferred onto a polyvinylidene fluoride (PVDF) membrane by using a transfer buffer at 4° C. with 120 V for 1.5 hours. The PVDF membrane on which the protein was transferred was pretreated with a blocking buffer prepared by mixing 5% skim milk with TBS buffer (TBS-T, pH 7.6) supplemented with Tween 20 for 30 minutes, and the membrane was washed with TBS-T. The washed membrane was added with the antibody against Akt (Cell Signaling Technology, USA), Akt(T308) (Cell Signaling Technology, USA), Akt(S473) (Cell Signaling Technology, USA), FOXO3A (Cell Signaling Technology, USA), FOXO3A(S253) (Cell Signaling Technology, USA), GSK-3β (Cell Signaling Technology, USA) or GSK-3β(S9) (Cell Signaling Technology, USA) protein as a primary antibody, followed by reaction at 4° C. for 12 hours. At this time, the antibody against actin (Santa Cruz Biotechnology, USA) protein was used for the control group. Upon completion of the reaction, the secondary antibody corresponding to the primary antibody was added thereto, followed by reaction at room temperature for 30 minutes. The PVDF membrane was washed with TBS-T buffer three times. The washed PVDF membrane was added with ECL solution (Thermo Scientific, USA), followed by image observation.
To investigate the changes in insulin sensitivity when insulin was added to the fatty liver cell model constructed in vitro, the phosphorylations of those proteins that were involved in insulin signaling mechanism were examined. PA was added to the human HepG2 cells prepared in Example 3, followed by reaction for 24 hours. […]

Akt protein [2] = assay: Western blot of Akt activation in HepG2 cells co-transfected with PI3K under increased calcium; format: cell-based, human
[3] = ITC of phospholipid liposomes with calcium; format: binding; conditions: liposome with POPC 80:20, 25° C.
Experimental: (§1) Particularly, a protein solution was prepared by suspending a protein in 10 mM HEPES (pH 7.0). Phospholipid related ligand was titrated in the protein solution at 25° C. by using iTC200 micro calorimetry system (MicroCal Inc., USA), and the generated graph was corrected using Origin software (MicroCal Inc., USA). At this time, the phospholipid related ligand was prepared in the form of liposome by mixing POPC (1-palmitoyl-2-oleoyl-sn-glycero-3-phosphocholin) chloroform solution and POPS (1-palmitoyl-2-oleoyl-sn-glycero-3-phosphoserine), PI(3,4)P2 (1,2-dipalmotoyl-sn-glycero-3-phosphatidylinositol-3,4-[…]), PI(4,5)P2 (1,2-dipalmotoyl-sn-glycero-3-phosphatidylinositol-4,5-trisphosphate) or PI(3,4,5)P3 (1,2-dipalmotoyl-sn-glycero-3-phosphatidylinositol-3,4,5-trisphosphate) at the molar ratio of 80:20. The organic solvent was eliminated. The organic solvent was removed and a single layer lamellar was produced in HEPES (pH 7.0) using phospholipids.

[4] = Protein-lipid binding assay (PIP-strips)
Experimental: (§2) Particularly, the analysis was performed by using membrane-immobilized lipid strips (PIP-strips, Echelon Biosciences Inc., USA). At this time, the membrane was loaded with LPA (lysophosphatidic acid), LPC (lysophosphatidylcholine), PI (phosphatidylinositol), PE (phosphatidylethanolamine), PC (phosphatidylcholine), S1P (sphingosine 1-phosphate), PA (phosphatidic acid) or PS (phosphatidylserine) at the concentration of 100 pmol, to which calcium was added at the concentration of 0, 0.05 or 0.1 mM. Each membrane was pre-treated with a blocking buffer [fatty acid free 3% BSA (bovine serum albumin), 0.1% (v/v) Tween 20 and TBS (Tris-buffered saline), pH 7.5] at room temperature for 30 minutes. The PH domain of Atk protein purified in Example <7-1> was suspended in a blocking buffer at the concentration of 3.5 mg/Ml. The suspended protein was reacted with the membrane-immobilized lipid strip at room temperature for 30 minutes. The protein bound with lipid was identified by using the PH domain antibody.
To investigate whether or not the binding of the PKCβ protein C2 domain purified in Example <8-1> to PI(4,5)P2 or PI(3,4,5)P3 was inhibited by calcium, protein-lipid binding assay and ITC were performed. First, protein-lipid binding assay was performed by the same manner under the same conditions as described in Example <7-2> except that the PKCβ protein C2 domain was used instead of the Akt protein PH domain. At this time, D187/193A and D246/248A mutant proteins of the C2 domain were used as the control group, and the results are shown in FIG. 8.

[5] = ITC of C2 domain with PI(3,4,5)P3 liposomes; format: binding
Experimental: as §1
In the meantime, in ITC, the phospholipid related ligand was prepared in the form of liposome by mixing POPC chloroform solution and PI(3,4,5)P3 at the molar ratio of 80:20. Then, ITC was performed by the same manner under the same conditions as described in Example <7-3> except that the PKCβ protein C2 domain or D187/193A, the C2 domain mutant, was used.

CHO cells = assay: Migration of mCherry-tagged PH or C2 domain to the cell membrane, fluorescence microscopy; format: cell-based
Description: First, the PH domain of Akt1 protein or the C2 domain of PKCβ protein was obtained by PCR using the primers consisting of the nucleotide sequences represented by […]. The obtained PCR product was cloned in pmCherry-C1 vector (Takara Clontech, Japan) by the conventional cloning method. CHO cells were transfected with the prepared vector by using lipofectamine according to the manufacturer's protocol. The transfected cells were selected by using blastidicin. Then, mCherry positive cells were confirmed by flow cytometry.
PMA at the concentration of 100 nM, ionomycin at the concentration of 10 μM or insulin at the concentration of 100 nM was added to the cells expressing the PH domain of Akt1 protein or the C2 domain of PKCβ protein and the location of the expressed protein was confirmed by fluorescence microscopy.

[6] = Protein-lipid binding assay (PIP-strips); remark: listed apart in the source
Experimental: as §2

[7] = HepG2, PMA 0, 10, 50 or 100 nM or ionomycin 0, 1, 5, 10 or 20 μM, 100 nM insulin, dose-dependent
[8] = membrane-immobilized lipid strips
[9] = intracellular calcium concentration increased (PMA 100 nM, ionomycin 10 μM)

COc1ccc(CCN(C)CCCC(C#N)(c2ccc(OC)c(OC)c2)C(C)C)cc1OC (stereo not shown) [verapamil]
phosphorylation of Akt protein (Akt protein [1]; HepG2, verapamil 0, 5, 10 or 100 nM, effect of insulin addition): increased

wild type Akt protein: control: wild type Akt protein containing the PH domain, SEQ. ID. NO: 16
Akt protein activation by PI3K (Akt protein [2]): activated | Akt protein activation as calcium concentration increases (Akt protein [2]; PMA 0, 10, 50 or 100 nM, ionomycin 20 μM, 1 hour): inhibited

CCCCCCCCCCCCCC(=O)O[C@@H]1[C@@H](C)[C@@]2(O)[C@@H](C=C(CO)C[C@]3(O)C(=O)C(C)=C[C@@H]23)[C@@H]2C(C)(C)[C@]12OC(C)=O [PMA, phorbol myristate acetate]
phosphorylation of Akt protein (Akt protein [1]; [7]): significantly inhibited

CCCCCCCCCCCCCCCC(=O)OCC(COP(=O)(O)OC1C(O)C(OP(=O)(O)O)C(OP(=O)(O)O)C(OP(=O)(O)O)C1O)OC(=O)CCCCCCCCCCCCCCC (stereo not shown) [PI(3,4,5)P3, 1,2-dipalmotoyl-sn-glycero-3-phosphatidylinositol-3,4,5-trisphosphate]
binding to calcium [3]: high affinity

C[C@H](CCC(=O)O)C[C@H](C)C[C@H](C)C(=O)/C=C(\O)[C@H](C)C[C@H](C)C/C=C/[C@@H](C)[C@@H](O)[C@@H](C)[C@@H](O)C[C@@H]1CC[C@@](C)([C@H]2CC[C@@](C)([C@@H](C)O)O2)O1 [ionomycin]
phosphorylation of Akt protein (Akt protein [1]; [7]): significantly inhibited

CCCCCCCCCCCCCCCC(=O)OCC(COP(=O)(O)OC1C(O)C(O)C(OP(=O)(O)O)C(OP(=O)(O)O)C1O)OC(=O)CCCCCCCCCCCCCCC (stereo not shown) [PI(3,4)P2, 1,2-dipalmotoyl-sn-glycero-3-phosphatidylinositol-3,4-triphosphate]
binding to calcium [3]: high affinity

C2 domain of PKCβ protein: purified C2 domain of PKCβ protein, SEQ. ID. NO: 14
effect of calcium on binding to PI(3,4,5)P3 ([4]; calcium 0, 0.05 or 0.1 mM): promoted | effect of calcium on binding to PI(4,5)P2 ([4]; calcium 0, 0.05 or 0.1 mM): promoted | binding to PI(3,4,5)P3 [4, 8]: strongly bound | binding to PI(4,5)P2 [4, 8]: strongly bound | binding to PI(3,4,5)P3 by ITC ([5]; absence of calcium): not induced | binding to PI(3,4,5)P3 by ITC ([5]; increased calcium concentration, POPC:PI(3,4,5)P3 80:20 liposome): strongly bound | migration to the cell membrane (CHO cells; insulin 100 nM added): did not migrate to the cell membrane | migration to the cell membrane (CHO cells; [9]): migrated as the intracellular calcium concentration was increased

CCCCCCCCCCCCCCCC(=O)OCC(COP(=O)(O)OC1C(O)C(O)C(OP(=O)(O)O)C(OP(=O)(O)O)C1O)OC(=O)CCCCCCCCCCCCCCC (stereo not shown) [PI(4,5)P2, 1,2-dipalmotoyl-sn-glycero-3-phosphatidylinositol-4,5-trisphosphate]
binding to calcium [3]: high affinity

B1: PH domain of Akt protein: purified PH domain of Akt1 protein, SEQ. ID. NO: 13 (protein)
chain: MSDVAIVKEGWLHKRGEYIKTWRPRYFLLKNDGTFIGYKERPQDVDQREAPLNNFSVAQCQLMKTERPRPNTFIIRCLQWTTVIERTFHVETPEEREEWTTAIQTVADGLKKQEEEEMDFRSGSPSDNSGAEEMEVSLAKPKHR
modifications: artificial_PH domain of Akt protein
effect of calcium on binding to PI(3,4)P2 ([6]; calcium 0, 0.05 or 0.1 mM): inhibited as calcium concentration was increased | binding to PI(3,4)P2 [6, 8]: bound | effect of calcium on binding to PI(3,4,5)P3 ([4]; calcium 0, 0.05 or 0.1 mM): inhibited as calcium concentration was increased | binding to PI(3,4,5)P3 [4, 8]: bound | migration to the cell membrane (CHO cells; insulin 100 nM added): migrated to the cell membrane | migration to the cell membrane (CHO cells; [9]): not observed

Reference: patent US20190153051A1, “FUSION PROTEIN OF C2 DOMAIN AND AKT KINASE DOMAIN FRAGMENT AND USE THEREOF” (Gachon University of Industry-Academic Cooperation …, priority 2017, published 2019)
